Type in all cases: in vivo
Experiment [1] relates to rat model exhibiting cognitive ability decreased by treatment with dizocilpine. Briefly: Y-maze test in rat model with cognitive ability decreased by dizocilpine. As to the method: (§1) Male rats (Wistar, 4 weeks old, Orient Bio Co., Ltd.) were purchased and acclimatized for one week or more in an animal cage. The experimental animals were raised in a light-controlled environment (illuminated for 12 hours/nonilluminated for 12 hours) and stored and managed according to the laboratory animal care standards of the Institutional Animal Care and Use Committee in an environment where a temperature of 19° C. to 25° C. and a relative humidity of 30% to 70% were maintained and water and food could be freely available. The rats were stabilized for one week or more, and then used for a Y-maze test. The rats were randomly divided into groups and the test was performed under illumination.
To create an animal model inducing symptoms of decreased cognitive ability, experimental animals were treated with dizocilpine, an NMDA receptor inhibitor.
(§2) Dizocilpine (purchased from Sigma) was dissolved in physiological saline used as a vehicle to be freshly prepared, and subcutaneously administered at a dose of 0.1 mg/kg in a volume of 1 ml per 1 kg of rat body weight 30 minutes before training. To a control group, only physiological saline was administered.
The test compound was dissolved in 5% DMSO in 9.5% Cremophor, and orally administered at doses of 0.1, 0.3, and 1 mg/kg in a volume of 5 ml per 1 kg of rat body weight one hour before training. To a control group, only vehicle (5% DMSO in 9.5% Cremophor) was administered.
The rats were handled by the experimenter for 3 minutes for two days, and a Y-maze test was performed the next day. After administration of vehicle or test compound intraperitoneally one hour before test and of vehicle or dizocilpine subcutaneously 30 minutes before test, the Y-maze test was performed for 5 minutes by placing the rat at the end of one arm in the Y-maze and allowing the rat to move freely. The three arms positioned at the same angle in the Y-maze had the same length of 45 cm, the same width of 10 cm, and the same height of 20 cm. A case where a rat visited three different arms in succession was defined as an alternation behavior.
The alternation rate was determined by identifying the alternation behavior of the rat based on the visit record to each arm in the Y-maze test, the data on the alternation rate between groups was analyzed by one-way ANOVA and Dunnett's multiple comparison test, and then the effect was defined as significant when p<0.05. All results were expressed as mean±SEM.

Experiment [2] shares this test system. Nature of the experiment: Object recognition test in rat model with cognitive ability decreased by dizocilpine. The following applies: for recognition index: P<0.01 vs negative control. The procedure:
As an animal model of cognitive disorder, an animal model of which the cognitive ability was decreased by administering dizocilpine, a cognitive inhibitor, was used.
as §1, with “Committee (IACUC)” for “Committee”, “an object recognition” for “a Y-maze”
To create an animal model inducing symptoms of decreased cognitive ability, the experimental animals were treated with dizocilpine, an N-methyl-D-aspartate (NMDA) receptor inhibitor.
as §2
The test compound was dissolved in 5% DMSO (dimethyl sulfoxide) in 10% Cremophor, and orally administered at doses of 0.03, 0.1, and 0.3 mg/kg in a volume of 1 ml per 1 kg of rat body weight one hour before training. To a control group, only vehicle (5% DMSO in 10% Cremophor) was administered.
Each rat was handled by the experimenter for 3 minutes or more, and box acclimation for 3 minutes was performed two times in an empty box before the experiment. After administration of vehicle or test compound intraperitoneally at a dose of 1 mg/kg one hour before training and of vehicle or dizocilpine subcutaneously 30 minutes before training, the rats were boxed for training. Training was conducted by exposing the rats in a box in which two identical plastic cylinders or stainless square pyramids were placed. One hour after training, the test was performed in a box in which one plastic cylinder and one stainless square pyramid was placed. During the test, the time during which the rat explored each object was measured. The test results were analyzed using a stainless square pyramid as a novel object in the case of rats trained in a box in which two plastic cylinders were placed and a plastic cylinder as a novel object in the case of rats trained in a box in which two stainless steel pyramids were placed.
The recognition index was calculated based on the time during which the object was explored, the data on the recognition index between groups was analyzed by one-way analysis of variance (ANOVA) and Dunnett's multiple comparison test, and then the effect was defined as significant when p<0.05. All results were expressed as mean±SEM.

The test system of experiment [3] is rat model undergone natural forgetting. Nature of the experiment: Object recognition test in natural forgetting rat model. The note with it: for Recognition index (mean ± SEM): test 24 h after training.

The source of these data is patent US20220370461A1, “USE OF IMIDAZOPYRIMIDINE OR IMIDAZOTRIAZINE COMPOUNDS FOR PREVENTION, ALLEVIATION, OR TREATMENT OF COGNITIVE DISORDERS, OR FOR IMPROVING COGNITIVE FUNCTION” (SK BIOPHARMACEUTICALS CO., LTD., priority 2019, published 2022).

As for `C[C@]12N[C@H](Cc3ccccc31)c1ccccc12` [Dizocilpine, dizocilpine, reference compound], the “Alternation rate (mean ± SEM)” value in experiment [1] (dizocilpine 0.1 mg/kg sc only (negative control), vehicle group 70.1 ± 2.8) was 49.2 ± 5.3. The same compound displayed an alternation rate in experiment [1] (dizocilpine only (negative control), P<0.001 vs vehicle group) of 49.2 ± 5.3%. In experiment [2] (dizocilpine 0.1 mg/kg sc only (negative control), vehicle group 63.29 ± 1.56), the “Recognition index (mean ± SEM)” value came out at 49.77 ± 1.03.

With `Fc1ccc(-c2cnc3nc(COc4ccccn4)cn3c2)c(C(F)(F)F)c1` [test compound, 6-[4-fluoro-2-(trifluoromethyl)phenyl]-2-(2-pyridyloxymethyl)imidazo[1,2-a]pyrimidine], the “Alternation rate (mean ± SEM)” value in experiment [1] (dizocilpine 0.1 mg/kg sc + test compound 0.1 mg/kg po, 5 min Y-maze, actual/maximum possible alternations × 100) turned out to be 67.3 ± 3.5; in experiment [1] (dizocilpine 0.1 mg/kg sc + test compound 0.3 mg/kg po), 57.3 ± 5.7; in experiment [1] (dizocilpine 0.1 mg/kg sc + test compound 1 mg/kg po) it was 49.9 ± 7.2. In addition, the alternation rate in experiment [1] (dizocilpine + test compound 0.1 mg/kg, P<0.001 vs negative control) is 67.3 ± 3.5%; in experiment [1] (dizocilpine + test compound 0.3 mg/kg, tendency toward recovery), 57.3 ± 5.7%. Besides, the “Recognition index (mean ± SEM)” value is on record as 56.57 ± 2.37 in experiment [3] (test compound 0.1 mg/kg po, first experiment, vehicle 48.61 ± 1.87); 59.77 ± 2.64 in experiment [3] (test compound 0.3 mg/kg po, first experiment); 60.91 ± 2.72 in experiment [3] (test compound 1 mg/kg po, second experiment, vehicle 51.20 ± 2.61); 56.20 ± 2.27 in experiment [3] (test compound 3 mg/kg po, second experiment); 51.95 ± 1.79 in experiment [2] (dizocilpine 0.1 mg/kg sc + test compound 0.03 mg/kg po, test 1 h after training, index = novel/total exploring time × 100); 57.95 ± 1.8 in experiment [2] (dizocilpine 0.1 mg/kg sc + test compound 0.1 mg/kg po, test 1 h after training). Also, in experiment [2] (dizocilpine 0.1 mg/kg sc + test compound 0.3 mg/kg po, test 1 h after training), the “Recognition index (mean ± SEM)” value is recorded as 57.62 ± 1.89. The recognition index stood at 56.57±2.37 in experiment [3] (test compound 0.1 mg/kg, first experiment, P<0.05 vs control); 59.77±2.64 in experiment [3] (test compound 0.3 mg/kg, first experiment, P<0.01 vs control); 60.91±2.72 in experiment [3] (test compound 1 mg/kg, second experiment, P<0.01 vs control); 56.20±2.27 in experiment [3] (test compound 3 mg/kg, second experiment); 57.95±1.8% in experiment [2] (dizocilpine + test compound 0.1 mg/kg); 57.62±1.89% in experiment [2] (dizocilpine + test compound 0.3 mg/kg).
